According to patent publication US20080194608A1, “6-Phenylhex-5-Enoic Acid Derivatives, Process for the Preparation Thereof, Pharmaceutical Compositions Comprising Them, and Therapeutic Uses Thereof” (priority 2005, published 2008):

Target: T1, chimeric protein PPARγ-Gal4 (Homo sapiens, UniProt P37231)
T1 construct: expressed in transfected cells; host or cells: CV-1 cells (monkey kidney cells)
T1 sequence (P37231 238-503 limits assumed): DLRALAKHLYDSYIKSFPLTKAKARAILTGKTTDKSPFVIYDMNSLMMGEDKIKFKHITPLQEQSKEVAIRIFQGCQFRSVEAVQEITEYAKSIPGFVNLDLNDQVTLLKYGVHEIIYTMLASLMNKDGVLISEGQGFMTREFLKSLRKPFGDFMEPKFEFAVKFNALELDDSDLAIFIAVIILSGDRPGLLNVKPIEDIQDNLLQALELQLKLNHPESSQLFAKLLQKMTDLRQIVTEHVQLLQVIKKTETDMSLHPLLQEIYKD
Assay: PPARγ-Gal4 transactivation (luciferase reporter) test in CV-1 cells
Assay type: cell-based
Description: The measurement of the PPAR activation was performed according to a technique described by Lehmann et al. (J. Biol. Chem., 270, (1995), 12953-12956).
CV-1 cells (monkey kidney cells) are cotransfected with an expression vector for the chimeric protein PPARγ-Gal4 and with a “reporter” plasmid that allows expression of the luciferase gene placed under the control of a promoter comprising Gal4 response elements.
The cells are seeded in 96-well microplates and cotransfected using a commercial reagent with the reporter plasmid (pG5-tk-pGL3) and the expression vector for the chimeric protein (PPARγ-Gal4). After incubation for 4 hours, whole culture medium (comprising 10% foetal calf serum) is added to the wells. After 24 hours, the medium is removed and replaced with whole medium comprising the test products. The products are left in contact with the cells for 18 hours. The cells are then lysed and the luciferase activity is measured using a luminometer. A PPARγ activation factor can then be calculated by means of the activation of the expression of the reporter gene induced by the product (relative to the control cells that have received no product).
In the absence of the PPARγ ligand binding domain (vector expressing Gal4 alone), the luciferase activity measured in the presence of an agonist is zero.
The following transactivation result was obtained with a concentration of 10 μM on PPARγ.
The transactivation test using the expression of a chimeric protein Gal-4-PPARγ makes it possible to determine also whether an agonist functions as a “full” agonist or as a “partial” agonist in this system.
An agonist is “partial” in this system if it induces a weaker response, i.e. it has lower efficacy, than rosiglitazone, which is a “full” agonist. In concrete terms, in our system, the transactivation obtained at the plateau with a partial agonist will be between 20% and 50% of the maximum response (efficacy) at the plateau of rosiglitazone.

Structure (SMILES) | Activation factor of the chimeric protein PPARγ-Gal4 (10 μM, CV-1 cells (monkey kidney cells), 18 hours contact, relative to control cells without agonist (=1)) | Concentration to reach the maximum stimulation of the PPARγ chimeric protein (CV-1 cells, Gal-4-PPARγ transactivation test) | Emax (transactivation at the plateau relative to maximum response (efficacy) of rosiglitazone, CV-1 cells, read-out: Maximum stimulation of the PPARγ chimeric protein obtained with rosiglitazone)
COc1ccccc1OC(CCC=Cc1cc(F)ccc1OCCc1nc(-c2ccccc2)oc1C)C(=O)O (stereo not drawn) [Example 44, 6-{5-fluoro-2-[2-(5-methyl-2-phenyloxazol-4-yl)ethoxy]phenyl}-2-(2-methoxyphenoxy)hex-5-enoic acid] | 5.8 |  | 
CCc1ccc(CCOc2ccc(F)cc2C=CCCC(Oc2ccc(C(F)(F)F)cc2)C(=O)O)nc1 (stereo not drawn) [Example 51, 6-{2-[2-(5-ethylpyridin-2-yl)ethoxy]-5-fluorophenyl)-2-(4-trifluoromethyl-phenoxy)hex-5-enoic acid] |  | 10 µM | 19%
